The values below come from patent US9302992B2, “Multifunctional quinoline derivatives as anti-neurodegenerative agents” (ANNJI PHARMACEUTICAL CO., LTD., priority 2013, dated 2016).

Data set [1] relates to undifferentiated PC12 cells. Briefly: Neurite outgrowth on undifferentiated PC12 cells. The conditions noted are these: FIG. 4. Type of data set: cell-based.
A further data set has as its system fAβ-lesioned mice. Briefly: Rotarod test in fAβ-lesioned mice. It counts as in vivo. As to conditions: FIG. 6; for riding time in rotarod test: 10 mg/kg, fAβ-lesioned mice; for performance of learning: fAβ-induced memory-deficit mice. In general terms: In the rotarod test animals must keep their balance on a rotating rod.
A further data set has as its system mice. Briefly: Animal model: memory and toxicity in mice. It counts as in vivo. The conditions noted are these: 1 to 100 mg/kg, preferable 1 to 10 mg/kg, i.p. daily; for toxicity: mice.
The target of the next data set is Aβ (Homo sapiens, UniProt P05067). Briefly: Aβ aggregation / fAβ formation, microscopy analysis after Congo red staining. It counts as biochemical.
Chain of Aβ (P05067 672-711 limits assumed): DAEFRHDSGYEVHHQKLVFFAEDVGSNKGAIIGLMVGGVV
The target in another data set is preformed Aβ aggregates (Homo sapiens, UniProt P05067). Briefly: Dissolution of preformed Aβ aggregates. As to conditions: FIG. 1B and FIG. 2. Type of data set: biochemical.
Chain of preformed Aβ aggregates (P05067 672-711 limits assumed): as above
The subject of another data set is neuron cells. Briefly: Neuroprotection of neuron cells against fAβ. Type of data set: cell-based. As to conditions: for protection of neuron cells from zinc-induced fAβ: FIGS. 3A-B. On the procedure: FIGS. 3A-B show compound C12 acting as a neuroprotective agent targeting fAβ.
(§1) Only compound C12 was effective toward zinc-free aggregates (FIG. 3B). […] Mice were assessed for the total duration of movement (FIG. 7A) and total duration of distance (FIG. 7B) to climb onto the hidden platform; and also quantified the appearance to target zone (FIG. 7C) indicating the relative time (compared to total time in swimming) to entry into a zone around the hidden platform; and for average swimming velocity (FIG. 7D) to discriminate enhanced memory from enhanced motor activity.

For data set [2], the system named is memory-deficit fAβ-lesioned mice. Briefly: Morris water maze test in memory-deficit fAβ-lesioned mice. Type of data set: in vivo. The conditions noted are these: FIGS. 7A-D. On the procedure:
FIGS. 7A-D show the results of Morris water maze test.
as §1

Data set [3] shares this test system. Briefly: GAP43 level and fAβ level in memory-deficit fAβ-lesioned mice. It counts as in vivo. As to conditions: FIG. 8.

The structures appear in SMILES notation.

As to `OCCCCCCCCCCCc1ccc2cccc(O)c2n1` [B3, 2-(11-hydroxyundecyl)quinolin-8-ol], in data set [1], the neurite outgrowth entry was “induction of neurite outgrowth”. For the same compound, in the data set with fAβ-lesioned mice, the “riding time in rotarod test” value was “increased riding time” and the performance of learning entry is listed as “improved performance of learning”. Also, in the data set with mice, the memory of mice result was “improve memory of mice” and the toxicity result is “without causing significant toxicity”.

`COc1cccc2ccc(CCCCCCCCCCCO)nc12` [C3, 11-(8-methoxyquinolin-2-yl)undecan-1-ol]: the neurite outgrowth entry in data set [1] is reported as “induction of neurite outgrowth”.

Turning to `COc1ccc(Cl)c2ccc(CCCCCCCCCCCO)nc12` [C12, 11-(5-chloro-8-methoxyquinolin-2-yl)undecan-1-ol], on Aβ (in the absence of zinc ions, FIG. 2), the “polymerization of Aβ” value is given as “inhibiting polymerization of Aβ”. Moreover, the Aβ aggregation entry on Aβ (in the presence or absence of zinc ions, Congo red staining, FIG. 1A) is given as “inhibited Aβ aggregation”. Moreover, the “dissolution of preformed Aβ aggregates” value at preformed Aβ aggregates is listed as “dissolved preformed Aβ aggregates”. The “effectiveness toward zinc-free aggregates” value in the data set with neuron cells (zinc-free aggregates, FIG. 3B) is recorded as “effective”. Besides, the “protection of neuron cells from zinc-induced fAβ” value in the data set on neuron cells was “protected”. In the data set on fAβ-lesioned mice, the “riding time in rotarod test” value is reported as “increased riding time” and the performance of learning entry was “improved performance of learning”. Besides, the “learning in the Morris water maze test” value in data set [2] is “improved learning”. Moreover, in data set [3], the GAP43 level entry was “increase in GAP43 level” and the fAβ level entry is recorded as “decrease in fAβ level”. Besides, in the data set on mice, the memory of mice result is “improve memory of mice” and the toxicity result is “without causing significant toxicity”.

`Oc1c(I)cc(Cl)c2cccnc12` [CQ, reference compound]: the “protection of neuron cells from zinc-induced fAβ” value in the data set on neuron cells is on record as “protected”.

Turning to `CCOc1cccc2ccc(CCCCCCCCCCCO)nc12` [D3, 11-(8-ethoxyquinolin-2-yl)undecan-1-ol], the neurite outgrowth entry in data set [1] is reported as “induction of neurite outgrowth”.
